According to PMC2849142 (Clinical and translational science, 2009):
Read-outs that look alike come from different tables or passages of the source. Blank lines part the entries; values can stand above or below the compound they belong to.

Experiments:
AMPK [1] = test: AICAR-induced activation of AMPK in NRVMs; type: cell-based, rat; conditions: for activity of AMPK following AICAR, as determined by ACC phosphorylation: NRVMs pre-treated 4h, then AICAR 1 mM 1h
NRVMs [2] = test: Rescue of sunitinib injury in NRVMs by AMPK activators; conditions: cells pre-treated with AICAR, then exposed to sunitinib
C57Bl/6 mice [3] = test: Myocardial capillary density; type: in vivo, mouse; conditions: 25 mg/kg/d, 5 weeks, isolectin B4, n = 3
patients = conditions: cited from earlier work
C57Bl/6 mice [4] = test: Echocardiographic indices of sunitinib-treated mice; type: in vivo, mouse; conditions: 25 mg/kg/d in chow, 5 weeks, mean ± SD
[5] = test system: Neonatal rat ventricular myocytes (NRVMs); test: Mitochondrial membrane potential; type: cell-based; conditions: 1 μM sunitinib, 12h
[6] = test system: Neonatal rat ventricular myocytes (NRVMs); test: TUNEL staining of cultured cardiomyocytes; type: cell-based
[7] = ref http://www.pfizer.com/files/products/uspi_sutent.pdf; cited from earlier work
AMPK [8] = test: Phospho-ACC immunoblot in NRVMs; type: cell-based, rat; conditions: sunitinib 1 μM, p < 0.01, n = 4
RET = conditions: read-out: IC50 vs RET; known sunitinib target; cited from earlier work
C57Bl/6 mice [9] = test: Cardiomyocyte cross-sectional area on H&E-stained heart sections of treated mice; type: in vivo, mouse; conditions: 25 mg/kg/d, 5 weeks, p < 0.01 vs. vehicle, n = 4
AMPK [10] = test: Phospho-AMPK; type: cell-based, rat; conditions: NRVMs, sunitinib 1 μM; p < 0.01 vs. control, n = 4
CAMKK1 = CAMKK1 (Homo sapiens, UniProt Q8N5S9); test: Recombinant biochemical kinase assay, sunitinib vs CAMKK1
Sequence of CAMKK1 (Q8N5S9 whole entry): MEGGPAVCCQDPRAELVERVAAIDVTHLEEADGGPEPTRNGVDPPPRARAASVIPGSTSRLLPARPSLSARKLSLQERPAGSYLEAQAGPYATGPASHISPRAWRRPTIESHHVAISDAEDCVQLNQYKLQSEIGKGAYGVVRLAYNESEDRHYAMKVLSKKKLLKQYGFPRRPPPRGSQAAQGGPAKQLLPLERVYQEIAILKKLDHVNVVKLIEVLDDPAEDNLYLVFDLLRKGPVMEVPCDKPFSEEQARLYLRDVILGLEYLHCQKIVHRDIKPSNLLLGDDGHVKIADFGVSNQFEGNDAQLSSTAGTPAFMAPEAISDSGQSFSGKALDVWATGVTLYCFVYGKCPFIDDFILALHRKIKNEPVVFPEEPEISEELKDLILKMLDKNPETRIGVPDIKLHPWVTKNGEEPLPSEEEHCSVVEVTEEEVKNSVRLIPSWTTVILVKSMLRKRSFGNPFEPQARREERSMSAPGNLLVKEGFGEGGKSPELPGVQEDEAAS

mitochondria = conditions: cited from earlier work
AMPK [11] = test: Phospho-ACC immunoblot of heart lysates of treated mice; type: in vivo, mouse; conditions: 25 mg/kg/d, 5 wks, p < 0.05 vs. control, n = 4 hearts
[12] = test system: Neonatal rat ventricular myocytes (NRVMs); test: ATP content of cultured cardiomyocytes; type: cell-based
mTORC1 = test: Phospho-eEF2 immunoblot in NRVMs; type: cell-based, rat; conditions: sunitinib 1 μM, p < 0.01, n = 4
NRVMs [13] = conditions: cited from earlier work

Compound: NC(=O)c1ncn([C@@H]2O[C@H](CO)[C@@H](O)[C@H]2O)c1N [AICAR]
- AMPK signaling (phospho-ACC) in the setting of sunitinib (AMPK [1]; AICAR 1 mM 1h after sunitinib pre-treatment 4h): failed to increase AMPK signaling
- rescue of sunitinib toxicity by pre-treatment with the AMPK activator (NRVMs [2]): failed to rescue

Compound: CCN(CC)CCNC(=O)c1c(C)[nH]c(/C=C2\C(=O)Nc3ccc(F)cc32)c1C [sunitinib]
- myocardial capillary density (C57Bl/6 mice [3]): does not alter
- patients developing congestive heart failure (CHF) (patients): 8–15%
- EF (ejection fraction) (C57Bl/6 mice [4]): 52.5 ± 6.85%
- FS (fractional shortening) (C57Bl/6 mice [4]): 31.3 ± 5.07%
- LVEDD (left ventricular end-diastolic dimension) (C57Bl/6 mice [4]): 3.51 ± 0.18 mm
- LVPW (left ventricular posterior wall thickness) (C57Bl/6 mice [4]): 0.86 ± 0.06 mm
- LVW/BW (left ventricular mass normalized to body weight) (C57Bl/6 mice [4]): 4.49 ± 0.28 mg/g
- LVESD (left ventricular end-systolic dimension) (C57Bl/6 mice [4]; P < 0.05 versus vehicle): 2.41 ± 0.27 mm
- mitochondrial membrane potential (Δψm) [5]: loss of Δψm
- cardiomyocyte apoptosis (TUNEL) ([6]; 28 hrs treatment, p < 0.05 vs. control): induce cardiomyocyte apoptosis
- phosphorylation of ACC1/2 (AMPK [8]): significantly reduced
- cardiomyocyte size (cross-sectional area) on H & E-stained heart sections (C57Bl/6 mice [9]): cardiomyocyte hypertrophy
- phosphorylation of AMPK at the activating site (T172) (AMPK [10]): modest but consistent increase
- IC50 (CAMKK1; IC50 vs CAMKK1 (range)): 4.5 to 6 µM
- IC50 (CAMKK1; Mean IC50, recombinant biochemical kinase assays, two to seven sets of assays): 5.25 µM
- activity of AMPK following AICAR, as determined by ACC phosphorylation (AMPK [1]): significantly reduced
- direct toxicity to mitochondria (mitochondria): not directly toxic to mitochondria
- phosphorylation of ACC2 in the heart in vivo (AMPK [11]): significantly reduced
- [ATP] in cardiomyocytes ([12]; 8h treatment, p < 0.05 vs. control): significantly reduced
- phosphorylation of eEF2 (mTORC1): marked increase

Compound: CN(C)C(=N)N=C(N)N [metformin]
- reduction of sunitinib injury in NRVMs (NRVMs [13]): failed to reduce sunitinib injury

- [ATP] in cardiomyocytes [12]: reduction in [ATP]
Compound: c1cc(-c2cnn3cc(-c4ccc(OCCN5CCCCC5)cc4)cnc23)ccn1 [Compound C]
- cardiomyocyte apoptosis (TUNEL) [6]: induced apoptosis
- activity of AMPK following AICAR, as determined by ACC phosphorylation (AMPK [1]): Inhibition
